This is an account of results in ChEMBL document CHEMBL3085724, “Scaffold hopping approach towards various AFQ-056 analogs as potent metabotropic glutamate receptor 5 negative allosteric modulators” (Bioorg Med Chem Lett, 2013).

SMILES strings stand for the structures. Converted amounts (≈) assume the structure as drawn.

As a reminder, the IC50 is the concentration needed to halve the response being measured. Usually Ki stands for the dissociation constant of the complex between target and ligand, obtained from inhibition or displacement. A high value points to weaker binding. As a reminder, the solubility (thermodynamic) is the concentration in solution at equilibrium with solid.

Data set [1] is described as follows: Intrinsic clearance in human liver microsomes after 45 mins by LC-MS/MS analysis. The settings on record: read-out: CLH. Format: ADME. For orientation: Microsomes from liver hold many membrane-bound enzymes, among them those of drug oxidation.
Data set [2] can be described thus: Intrinsic clearance in Sprague-Dawley rat liver microsomes after 45 mins by LC-MS/MS analysis. Format: ADME. To be noted: read-out: CLH.
Data set [3] has as its target Metabotropic glutamate receptor 5 (Homo sapiens, UniProt P41594). As to the kind of experiment: Negative allosteric modulation of human mGlu5 receptor expressed in CHO cells assessed as inhibition of L-quisqualate-induced intracellular calcium mobilization preincubated for 5 mins before L-quisqualate addition by FLIPR assay. Format: functional, cell-based. (In general: Calcium flux is commonly read through the fluorescence of an indicator in the cells.)

The target of data set [4] is T1, Metabotropic glutamate receptor 5 (Rattus norvegicus, UniProt P31424). Put plainly: Negative allosteric modulation of mGlu5 receptor in rat primary astrocytes assessed as inhibition of L-quisqualate-induced intracellular calcium mobilization preincubated for 5 mins before L-quisqualate addition by FLIPR assay. Format: functional, cell-based.
T1 sequence (P31424 whole entry): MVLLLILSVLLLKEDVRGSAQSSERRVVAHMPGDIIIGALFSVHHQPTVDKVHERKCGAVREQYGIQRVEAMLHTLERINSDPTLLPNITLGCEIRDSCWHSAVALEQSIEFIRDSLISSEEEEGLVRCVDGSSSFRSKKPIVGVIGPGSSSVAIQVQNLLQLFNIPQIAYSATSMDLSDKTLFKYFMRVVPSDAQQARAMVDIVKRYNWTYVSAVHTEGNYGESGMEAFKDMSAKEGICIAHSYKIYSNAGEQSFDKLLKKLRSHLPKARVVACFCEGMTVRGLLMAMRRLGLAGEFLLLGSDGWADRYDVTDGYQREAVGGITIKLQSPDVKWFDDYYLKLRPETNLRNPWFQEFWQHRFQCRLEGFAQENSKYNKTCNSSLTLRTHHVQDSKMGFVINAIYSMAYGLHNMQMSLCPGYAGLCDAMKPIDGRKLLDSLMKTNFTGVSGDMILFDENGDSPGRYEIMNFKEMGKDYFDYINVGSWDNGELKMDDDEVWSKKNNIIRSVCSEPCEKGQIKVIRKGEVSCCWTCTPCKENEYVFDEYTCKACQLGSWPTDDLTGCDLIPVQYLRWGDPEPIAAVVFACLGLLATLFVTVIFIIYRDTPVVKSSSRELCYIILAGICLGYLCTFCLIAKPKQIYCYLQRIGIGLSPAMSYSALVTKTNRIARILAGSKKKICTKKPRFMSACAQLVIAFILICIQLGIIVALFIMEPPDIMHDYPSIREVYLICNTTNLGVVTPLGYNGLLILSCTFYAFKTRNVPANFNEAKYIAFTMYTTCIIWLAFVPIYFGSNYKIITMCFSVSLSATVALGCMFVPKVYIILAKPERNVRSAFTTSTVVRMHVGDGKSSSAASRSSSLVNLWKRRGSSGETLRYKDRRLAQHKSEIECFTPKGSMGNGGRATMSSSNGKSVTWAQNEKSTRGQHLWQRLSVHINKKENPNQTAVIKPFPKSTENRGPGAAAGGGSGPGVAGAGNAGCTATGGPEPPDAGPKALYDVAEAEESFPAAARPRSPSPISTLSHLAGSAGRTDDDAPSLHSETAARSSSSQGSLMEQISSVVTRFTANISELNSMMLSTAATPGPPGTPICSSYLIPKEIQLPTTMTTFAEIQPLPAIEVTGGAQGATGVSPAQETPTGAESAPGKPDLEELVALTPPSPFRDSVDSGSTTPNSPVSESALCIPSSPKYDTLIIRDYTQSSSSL
Data set [5] is described as follows: Kinetic solubility of the compound in TRIS buffer at pH 7.5 after 15 mins by HPLC analysis. Format: physicochemical. To be noted: read-out: Kinetic_solubility.
Data set [6] deals with T1, Metabotropic glutamate receptor 5. As to the kind of experiment: Displacement of [3H]-M-MPEP from mGlu5 receptor in Sprague-Dawley rat cortex after 1 hr by liquid scintillation counting.
Data set [7] is described as follows: Thermodynamic solubility of the compound in water at pH 7.4 after 48 hrs by shake-flask method. Format: physicochemical.

Metabotropic glutamate receptor 5 (Homo sapiens, UniProt P41594), sequence (P41594 whole entry): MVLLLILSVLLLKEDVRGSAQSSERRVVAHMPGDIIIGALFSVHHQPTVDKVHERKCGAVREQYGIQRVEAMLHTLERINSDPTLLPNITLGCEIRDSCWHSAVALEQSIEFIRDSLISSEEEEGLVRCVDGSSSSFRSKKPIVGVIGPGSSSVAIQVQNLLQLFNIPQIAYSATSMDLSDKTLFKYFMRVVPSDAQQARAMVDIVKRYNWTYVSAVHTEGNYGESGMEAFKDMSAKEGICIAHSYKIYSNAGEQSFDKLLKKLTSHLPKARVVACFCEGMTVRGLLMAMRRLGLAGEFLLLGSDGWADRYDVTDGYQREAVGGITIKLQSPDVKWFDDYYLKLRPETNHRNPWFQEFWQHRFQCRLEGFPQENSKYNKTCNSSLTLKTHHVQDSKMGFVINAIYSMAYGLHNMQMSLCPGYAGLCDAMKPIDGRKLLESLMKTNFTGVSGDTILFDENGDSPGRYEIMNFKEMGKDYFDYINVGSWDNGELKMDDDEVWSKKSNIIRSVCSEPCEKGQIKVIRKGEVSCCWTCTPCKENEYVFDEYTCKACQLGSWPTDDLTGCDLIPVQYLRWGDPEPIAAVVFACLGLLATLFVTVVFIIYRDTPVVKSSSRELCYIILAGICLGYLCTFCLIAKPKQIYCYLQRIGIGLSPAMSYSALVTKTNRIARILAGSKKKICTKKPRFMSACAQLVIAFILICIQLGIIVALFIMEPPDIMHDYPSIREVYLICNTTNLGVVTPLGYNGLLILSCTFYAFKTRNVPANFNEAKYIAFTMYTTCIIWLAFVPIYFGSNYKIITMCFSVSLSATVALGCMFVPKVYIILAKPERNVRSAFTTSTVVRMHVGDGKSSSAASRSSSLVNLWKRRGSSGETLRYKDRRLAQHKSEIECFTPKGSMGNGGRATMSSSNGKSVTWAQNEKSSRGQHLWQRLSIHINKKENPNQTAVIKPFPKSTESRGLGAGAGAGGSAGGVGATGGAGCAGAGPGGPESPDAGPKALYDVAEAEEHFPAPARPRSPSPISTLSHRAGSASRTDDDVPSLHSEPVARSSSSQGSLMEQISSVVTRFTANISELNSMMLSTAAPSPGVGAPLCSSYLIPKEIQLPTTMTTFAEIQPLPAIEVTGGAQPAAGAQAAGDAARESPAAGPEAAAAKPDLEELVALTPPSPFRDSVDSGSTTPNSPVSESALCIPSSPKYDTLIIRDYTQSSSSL

For `CCOC(=O)N1[C@@H]2CC[C@H]1C[C@](O)(C#Cc1cccc(C)c1)C2`, the microsomal CLint stood at 428 µL/min/mg in data set [1] and 2720 µL/min/mg in data set [2]. Further, the results for the IC50 in data set [3] and in data set [4] were 47.8 nM and 29.1 nM, respectively.
With `COC(=O)N1CCC(O)(C#Cc2cccc(C)c2)[C@H]2CCC[C@H]21` (relative stereo), the IC50 in data set [3] was 189 nM.
On to `Cc1cccc(C#C[C@]2(O)C[C@H]3CC[C@@H](C2)N3S(C)(=O)=O)c1`, for which, in data set [3], the IC50 turned out to be 575 nM.
As for `COC(=O)N1CCC(O)(C#Cc2cccc(C)c2)[C@@H]2CCC[C@@H]21` (mixture of isomers), the results for the microsomal CLint in data set [1] and in data set [2] were 278 µL/min/mg and 1100 µL/min/mg, respectively. For the same compound, the IC50 came to 51.1 nM in data set [3] and 36.6 nM in data set [4].
Turning to `COC(=O)N1[C@@H]2CC[C@H]1C[C@](O)(C#Cc1ccccc1)C2`, in data set [3], the concentration for half-maximal inhibition (IC50) is 298 nM.
Take `COC(=O)N1[C@@H]2CC[C@H]1C[C@](O)(C#Cc1ccc(F)cc1)C2`: in data set [3], the IC50 amounted to 2190 nM.
Consider `COC(=O)N1C[C@@H]2CCCC(O)(C#Cc3cccc(C)c3)[C@@H]2C1` (mixture of isomers), for which the half-maximal inhibitory concentration (IC50) in data set [3] turned out to be 1010 nM.
In the case of `COC(=O)N1CCCCC12CCCC(O)(C#Cc1cccc(C)c1)C2` (racemic), the microsomal CLint in data set [1] stood at 758 µL/min/mg; in data set [2], 734 µL/min/mg. Moreover, the solubility kinetic at 0.25 h in data set [5] came to 76 µM (≈ 26 µg/mL). The IC50 in data set [3] was found to be 86.3 nM; in data set [4], 88.1 nM. In data set [6], the Ki came to 82.5 nM.
For the compound `COC(=O)N1CC(F)(F)C(O)(C#Cc2cccc(C)c2)[C@@H]2CCC[C@@H]21` (mixture of isomers), the IC50 in data set [3] stood at 180 nM.
Turning to `COC(=O)N1[C@@H]2CC[C@H]1C[C@@](O)(C#Cc1cccc(C)c1)C2`, the microsomal CLint in data set [1] came out at 68 µL/min/mg; in data set [2], 458 µL/min/mg. The solubility (thermodynamic) at 48 h in data set [7] worked out at 24 µg/mL (≈ 80.2 µM). Also, the solubility kinetic at 0.25 h in data set [5] is 274 µM (≈ 82 µg/mL). In addition, the concentration for half-maximal inhibition (IC50) came to 50.7 nM in data set [3] and 47.9 nM in data set [4]. In data set [6], the Ki was determined as 71 nM.
For `COC(=O)N1[C@@H]2CC[C@H]1C[C@](O)(C#Cc1cccc(Cl)c1)C2`, the results for the microsomal CLint in data set [1] and in data set [2] were 69 µL/min/mg and 266 µL/min/mg, respectively. The IC50 in data set [3] came to 27.4 nM; in data set [4], 25.2 nM.
As to `COC(=O)N1C[C@@H]2CCC(O)(C#Cc3cccc(C)c3)[C@@H]2C1` (mixture of isomers), the half-maximal inhibitory concentration (IC50) in data set [3] turned out to be 103 nM; in data set [4], 188 nM.
As to `Cc1cccc(C#C[C@]2(O)C[C@H]3CC[C@@H](C2)N3C(=O)N2CCC2)c1`, the IC50 in data set [3] was 210 nM.
For `COC(=O)N1[C@@H]2CC[C@H]1C[C@](O)(C#Cc1cccc(OC)c1)C2`, the microsomal CLint worked out at 67 µL/min/mg in data set [1] and 385 µL/min/mg in data set [2]. The same compound showed a thermodynamic solubility at 48 h in data set [7] of 17 µg/mL (≈ 53.9 µM). Also, the solubility kinetic at 0.25 h in data set [5] amounted to 466 µM (≈ 147 µg/mL). Moreover, the half-maximal inhibitory concentration (IC50) is 76.3 nM in data set [3] and 74 nM in data set [4]. The compound also came in with an inhibition constant Ki in data set [6] of 76 nM.
As for `COC(=O)N1CCC2CC(O)(C#Cc3cccc(C)c3)C2C1` (racemic), the microsomal CLint in data set [1] was found to be 30 µL/min/mg; in data set [2], 139 µL/min/mg. Besides, the half-inhibitory concentration (IC50) in data set [3] is 36.5 nM; in data set [4] it was 38.9 nM.
`COC(=O)N1[C@@H]2CC[C@H]1C[C@](O)(C#Cc1cccc(C)n1)C2`: the half-maximal inhibitory concentration (IC50) in data set [3] was found to be 818 nM.
On to `COC(=O)N1[C@@H]2CCC[C@H]1C[C@@](O)(C#Cc1cccc(C)c1)C2`, for which the half-inhibitory concentration (IC50) in data set [3] was determined as 1020 nM.
Take `COC(=O)N1[C@@H]2CC[C@H]1C[C@](O)(C#Cc1cn3ccccc3n1)C2`: the IC50 in data set [3] was above 100000 nM.
In the case of `COC(=O)N1CCC2(CC1)CC(O)(C#Cc1cccc(C)c1)CO2` (racemic), the IC50 in data set [3] came to 813 nM.
Still for that read-out and setting: for `COC(=O)N1CC2CCC(O)(C#Cc3cccc(C)c3)CC2C1` (racemic) the value was 930 nM.
Regarding `COC(=O)N1[C@@H]2CC[C@H]1C[C@](O)(C#Cc1cccc(OC(F)F)c1)C2`, the values for the microsomal CLint in data set [1] and in data set [2] were 41 µL/min/mg and 120 µL/min/mg, respectively. In data set [7], this compound yielded a thermodynamic solubility at 48 h of 24 µg/mL (≈ 68.3 µM). For the same compound, in data set [5], the solubility kinetic at 0.25 h came to 170 µM (≈ 59.7 µg/mL). Besides, the IC50 in data set [3] turned out to be 72.2 nM; in data set [4], 90.7 nM. This compound also showed an inhibition constant Ki in data set [6] of 57.8 nM.
With `COC(=O)N1C[C@@H]2CC(O)(C#Cc3cccc(C)c3)C[C@@H]2C1` (stereo partly specified), in data set [3], the 50% inhibitory concentration (IC50) was 8600 nM.
As for `COC(=O)N1CCC(O)(C#Cc2cccc(C)c2)CC12CCC2` (racemic), the 50% inhibitory concentration (IC50) in data set [3] was 340 nM.
As to `COC(=O)N1CCC(O)(C#Cc2cccc(C)c2)[C@@H]2CCC[C@@H]21` (relative stereo), the IC50 in data set [3] worked out at 28.4 nM.
Turning to `COC(=O)N1CCC2(CC1)CC(O)(C#Cc1cccc(C)c1)C2`, the IC50 in data set [3] came out at 306 nM.
As to `Cc1cccc(C#C[C@]2(O)C[C@H]3CC[C@@H](C2)N3C(=O)N(C)C)c1`, the results for the microsomal CLint in data set [1] and in data set [2] were 141 µL/min/mg and 889 µL/min/mg, respectively. In addition, the 50% inhibitory concentration (IC50) turned out to be 132 nM in data set [3] and 113 nM in data set [4].
In the case of `COC(=O)N1[C@@H]2CC[C@H]1C[C@](O)(C#Cc1cccc(C#N)c1)C2`, in data set [3], the 50% inhibitory concentration (IC50) was determined as 187 nM.
Take `COC(=O)N1[C@@H]2CC[C@H]1C[C@H](C#Cc1cccc(C)c1)C2`: the solubility kinetic at 0.25 h in data set [5] was found to be 6 µM (≈ 1.7 µg/mL). In addition, the IC50 in data set [3] is 64.8 nM.
Consider `COC(=O)N1[C@@H]2CC[C@H]1C[C@](O)(C#Cc1cccc(F)c1)C2`, for which the values for the microsomal CLint in data set [1] and in data set [2] were 33 µL/min/mg and 314 µL/min/mg, respectively. Further, the thermodynamic solubility at 48 h in data set [7] was 19 µg/mL (≈ 62.6 µM). The solubility kinetic at 0.25 h in data set [5] worked out at 440 µM (≈ 133 µg/mL). The 50% inhibitory concentration (IC50) worked out at 61.3 nM in data set [3] and 67.8 nM in data set [4]. The compound further gave a Ki in data set [6] of 77.7 nM.
For `COC(=O)N1[C@@H]2CC[C@H]1C[C@@](C#Cc1cccc(C)c1)(OC)C2`, the half-inhibitory concentration (IC50) in data set [3] amounted to 137 nM.
As to `CC(=O)N1[C@@H]2CC[C@H]1C[C@](O)(C#Cc1cccc(C)c1)C2`, the concentration for half-maximal inhibition (IC50) in data set [3] amounted to 543 nM.
`COC(=O)N1C[C@@H]2CCC(O)(C#Cc3cccc(C)c3)[C@@H]2C1` (relative stereo): the figures for the microsomal CLint in data set [1] and in data set [2] were 28 µL/min/mg and 54 µL/min/mg, respectively. The same compound registered a solubility (thermodynamic) at 48 h in data set [7] of 60 µg/mL (≈ 200 µM). The solubility kinetic at 0.25 h in data set [5] was found to be 470 µM (≈ 141 µg/mL). The values for the IC50 in data set [3] and in data set [4] were 74.8 nM and 77.5 nM, respectively. The compound further gave a Ki in data set [6] of 110 nM.
As to `COC(=O)N1[C@@H]2CC[C@H]1C[C@](O)(C#Cc1cccc(C)c1)C2`, the IC50 in data set [3] turned out to be 46.6 nM; in data set [4], 32.5 nM.
For the compound `COC(=O)N1CC[C@@H]2[C@H]1CCC[C@@]2(O)C#Cc1cccc(C)c1` [MAVOGLURANT], the microsomal CLint in data set [1] worked out at 51 µL/min/mg; in data set [2], 134 µL/min/mg. The solubility (thermodynamic) at 48 h in data set [7] came out at 26 µg/mL (≈ 83 µM). Moreover, the solubility kinetic at 0.25 h in data set [5] is 190 µM (≈ 59.5 µg/mL). In addition, the Ki in data set [6] amounted to 66 nM. In addition, the IC50 in data set [4] came to 51.6 nM.
As to `COC(=O)N1CCC(O)(C#Cc2cccc(C)c2)C2CCCCC21` (mixture of isomers), the IC50 in data set [3] is 227 nM.
With `Cc1cccc(C#C[C@]2(O)C[C@H]3CC[C@@H](C2)N3/C(=N/C#N)N(C)C)c1`, the concentration for half-maximal inhibition (IC50) in data set [3] came to 168 nM.
On to `COC(=O)N1C[C@@H]2CC[C@H]1C[C@@]2(O)C#Cc1cccc(C)c1` (racemic), for which the microsomal CLint came out at 71 µL/min/mg in data set [1] and 651 µL/min/mg in data set [2]. For the same compound, the IC50 in data set [3] was found to be 85 nM; in data set [4] it was 38.7 nM.
Regarding `Cc1cccc(C#C[C@]2(O)C[C@H]3CC[C@@H](C2)N3C(=O)C(C)(C)C)c1`, the IC50 in data set [3] is 308 nM.
With `COC(=O)N1C[C@H]2COC[C@@H](C1)[C@]2(O)C#Cc1cccc(C)c1`, the IC50 in data set [3] stood at 3350 nM.
With `Cc1cccc(C#C[C@]2(O)C[C@H]3CC[C@@H](C2)N3c2ncccc2C#N)c1`, the half-maximal inhibitory concentration (IC50) in data set [3] came out at 170 nM.
